Laboratory results reported in PMC10281575, “PfCRT mutations conferring piperaquine resistance in falciparum malaria shape the kinetics of quinoline drug binding and transport” (PLOS Pathogens, 2023).
Several values for one entry are separate records, joined by “and”; a condition that tells them apart may be missing. Equal entries are not always repeated.

Biological target: T1, PfCRT^Dd2 (Plasmodium falciparum, UniProt Q8IBZ9, A220S/I356T/K76T/M74I/N326S/N75E/Q271E/R371I)
T1 sequence (Q8IBZ9 1-424 M74I/N75E/K76T/A220S/Q271E/N326S/I356T/R371I): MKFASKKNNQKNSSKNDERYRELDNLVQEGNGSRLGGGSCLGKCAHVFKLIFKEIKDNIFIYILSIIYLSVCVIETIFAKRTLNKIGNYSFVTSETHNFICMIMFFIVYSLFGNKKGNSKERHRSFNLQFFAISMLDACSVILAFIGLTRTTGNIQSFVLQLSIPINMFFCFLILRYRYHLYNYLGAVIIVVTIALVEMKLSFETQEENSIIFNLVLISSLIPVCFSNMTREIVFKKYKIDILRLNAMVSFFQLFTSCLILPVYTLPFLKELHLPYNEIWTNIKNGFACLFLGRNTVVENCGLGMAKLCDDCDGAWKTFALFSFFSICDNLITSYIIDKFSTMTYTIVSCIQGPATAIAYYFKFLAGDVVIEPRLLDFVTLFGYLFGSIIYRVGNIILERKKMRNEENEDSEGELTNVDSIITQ
Test: Competition kinetics of drug transport (radiolabeled substrate plus cold inhibitor), PfCRT^Dd2-expressing oocytes
Type: cell-based
Set-up: expressed in transfected cells; host or cells: Xenopus laevis oocytes injected with in vitro transcribed RNA (pSP64T)
Settings: single replicates
Protocol: The experimental procedure and the data analysis were as described above.
The difference between the two models lies in the value of α, a parameter describing how much the affinity for the substrate changes when the inhibitor is already bound, and vice versa. […] The resulting Vmax,app values and the Vmax,app/KM,app ratios were plotted as a function of the inhibitor concentration (Fig 5A).
Drug transport assays were performed as previously described. Briefly, measurements of radiolabeled drug uptake were made over 1 h, unless otherwise specified. […] Where specified, one or more unlabeled drugs were also present at the indicated concentrations. […] The uptake assays were terminated by removing the oocytes from the reaction medium and washing them three times with 2 mL of ice-cold ND96 buffer. Each oocyte was transferred to a separate scintillation vial and lysed by the addition of 200 μL of a 5% SDS solution. The radioactivity in the sample was measured using a liquid scintillation analyser Tri-Carb 4910 TR (PerkinElmer). Water-injected oocytes were analyzed in parallel as a negative control. The buffer from each condition was measured in duplicate in parallel to each experiment to transform counts per minute into pmol of drug. Drug uptake attributable to PfCRT was determined by subtracting the background uptake from water-injected oocytes from that of PfCRT-expressing oocytes. In all cases, at least three independent experiments were performed on oocytes from different frogs, and for each condition in an experiment, measurements were made from 10 oocytes per treatment.
The following equations were adopted from Segel (1993), and the reader is referred to that text for the assumptions made in the author’s approach in the derivation of each equation [31]. The concentration of substrate is denoted as [S1] and the concentration of the inhibiting substrate is denoted as [S2]. KS1 and KS2 are the dissociation constants for the respective substrate-protein complexes.
Analyses of the kinetic data were performed using SigmaPlot version 13.0 and Python. The drug competition models were globally fit to the kinetic data using the least-squares method and ranked according to their corrected Akaike information criterion difference (ΔAICC) and their Akaike weight, using Python. The two top-ranked models were compared using an F-test.
This factor reflects how much the affinity of the transporter for one drug changes when the other drug is already bound in the protein cavity. In the former model, α > 0 and α ≠ 1. In the latter model, it could be thought of as if α = 1. Because of this, discriminating between the two models also means determining the value of α. In Mixed-type (Partial) inhibition, the apparent maximal velocity (Vmax,app) is given by Eq 22, Vmax,app=Vmax(1+β[S2]/αKS2)/(1+[S2]/αKS2) (Eq 22)
Vmax,app is the maximal rate of substrate transport at a certain inhibitor concentration. The half-maximal inhibitory concentration is given by the term in the denominator different from [S2], which in this case is αKS2. This means that by plotting Vmax,app as a function of [S2], the value of αKS2 can be derived after fitting the curve to Eq 23.
The half-maximal inhibitory concentration derived from this hyperbolic equation is equal to KS2. By plotting Vmax,app/KM,app as a function of [S2], one can derive KS2 after fitting the curve to Eq 25. The value of α can then be calculated dividing αKS2 by KS2.

With CCN(CC)CCCC(C)Nc1ccnc2cc(Cl)ccc12 (stereo not drawn) [CQ, chloroquine] the “PfCRTDd2-mediated CQ transport 10 µM CQ” value (0 µM PPQ) was 0.87 pmol oocyte-1 h-1 and 1.33 pmol oocyte-1 h-1 and 1.00 pmol oocyte-1 h-1 and 0.95 pmol oocyte-1 h-1, the “PfCRTDd2-mediated CQ transport 10 µM CQ” value (50 µM PPQ) was 1.41 pmol oocyte-1 h-1 and 1.10 pmol oocyte-1 h-1 and 0.61 pmol oocyte-1 h-1 and the “PfCRTDd2-mediated CQ transport 10 µM CQ” value (125 µM PPQ) was 0.68 pmol oocyte-1 h-1 and 1.41 pmol oocyte-1 h-1 and 1.40 pmol oocyte-1 h-1. The “PfCRTDd2-mediated CQ transport 10 µM CQ” value (200 µM PPQ) was 0.89 pmol oocyte-1 h-1 and 0.30 pmol oocyte-1 h-1 and 1.02 pmol oocyte-1 h-1, the “PfCRTDd2-mediated CQ transport 10 µM CQ” value (350 µM PPQ) was 1.16 pmol oocyte-1 h-1 and 0.24 pmol oocyte-1 h-1 and 0.95 pmol oocyte-1 h-1 and the “PfCRTDd2-mediated CQ transport 10 µM CQ” value (500 µM PPQ) was 0.43 pmol oocyte-1 h-1 and 1.04 pmol oocyte-1 h-1 and 0.36 pmol oocyte-1 h-1. The “PfCRTDd2-mediated CQ transport 50 µM CQ” value (0 µM PPQ) was 3.90 pmol oocyte-1 h-1 and 4.91 pmol oocyte-1 h-1 and 4.76 pmol oocyte-1 h-1 and 7.49 pmol oocyte-1 h-1 and 10.46 pmol oocyte-1 h-1 and 5.04 pmol oocyte-1 h-1 and 3.98 pmol oocyte-1 h-1, the “PfCRTDd2-mediated CQ transport 50 µM CQ” value (50 µM PPQ) was 6.48 pmol oocyte-1 h-1 and 5.07 pmol oocyte-1 h-1 and 3.08 pmol oocyte-1 h-1 and 4.12 pmol oocyte-1 h-1 and the “PfCRTDd2-mediated CQ transport 50 µM CQ” value (125 µM PPQ) was 4.96 pmol oocyte-1 h-1 and 2.54 pmol oocyte-1 h-1 and 3.07 pmol oocyte-1 h-1. The “PfCRTDd2-mediated CQ transport 50 µM CQ” value (200 µM PPQ) was 3.46 pmol oocyte-1 h-1 and 2.63 pmol oocyte-1 h-1 and 3.11 pmol oocyte-1 h-1, the “PfCRTDd2-mediated CQ transport 50 µM CQ” value (350 µM PPQ) was 2.38 pmol oocyte-1 h-1 and 2.66 pmol oocyte-1 h-1 and 3.48 pmol oocyte-1 h-1 and the “PfCRTDd2-mediated CQ transport 50 µM CQ” value (500 µM PPQ) was 2.32 pmol oocyte-1 h-1 and 2.15 pmol oocyte-1 h-1 and 3.29 pmol oocyte-1 h-1. For the same compound, the “PfCRTDd2-mediated CQ transport 100 µM CQ” value (0 µM PPQ) was 8.35 pmol oocyte-1 h-1 and 7.99 pmol oocyte-1 h-1 and 8.53 pmol oocyte-1 h-1, the “PfCRTDd2-mediated CQ transport 100 µM CQ” value (50 µM PPQ) was 9.49 pmol oocyte-1 h-1 and 7.68 pmol oocyte-1 h-1 and 5.55 pmol oocyte-1 h-1 and the “PfCRTDd2-mediated CQ transport 100 µM CQ” value (125 µM PPQ) was 5.95 pmol oocyte-1 h-1 and 8.32 pmol oocyte-1 h-1 and 6.55 pmol oocyte-1 h-1. For the same compound, the “PfCRTDd2-mediated CQ transport 100 µM CQ” value (200 µM PPQ) was 5.59 pmol oocyte-1 h-1 and 6.01 pmol oocyte-1 h-1 and 5.66 pmol oocyte-1 h-1, the “PfCRTDd2-mediated CQ transport 100 µM CQ” value (350 µM PPQ) was 5.36 pmol oocyte-1 h-1 and 3.63 pmol oocyte-1 h-1 and 6.93 pmol oocyte-1 h-1 and the “PfCRTDd2-mediated CQ transport 100 µM CQ” value (500 µM PPQ) was 4.92 pmol oocyte-1 h-1 and 5.26 pmol oocyte-1 h-1 and 4.17 pmol oocyte-1 h-1. For the same compound, the “PfCRTDd2-mediated CQ transport 200 µM CQ” value (0 µM PPQ) was 17.86 pmol oocyte-1 h-1 and 12.77 pmol oocyte-1 h-1 and 15.13 pmol oocyte-1 h-1, the “PfCRTDd2-mediated CQ transport 200 µM CQ” value (50 µM PPQ) was 13.29 pmol oocyte-1 h-1 and 13.73 pmol oocyte-1 h-1 and 11.63 pmol oocyte-1 h-1 and the “PfCRTDd2-mediated CQ transport 200 µM CQ” value (125 µM PPQ) was 10.25 pmol oocyte-1 h-1 and 14.35 pmol oocyte-1 h-1 and 10.52 pmol oocyte-1 h-1. For the same compound, the “PfCRTDd2-mediated CQ transport 200 µM CQ” value (200 µM PPQ) was 10.68 pmol oocyte-1 h-1 and 10.09 pmol oocyte-1 h-1 and 9.74 pmol oocyte-1 h-1, the “PfCRTDd2-mediated CQ transport 200 µM CQ” value (350 µM PPQ) was 11.39 pmol oocyte-1 h-1 and 6.27 pmol oocyte-1 h-1 and 10.49 pmol oocyte-1 h-1 and the “PfCRTDd2-mediated CQ transport 200 µM CQ” value (500 µM PPQ) was 7.85 pmol oocyte-1 h-1 and 9.03 pmol oocyte-1 h-1 and 9.31 pmol oocyte-1 h-1. The “PfCRTDd2-mediated CQ transport 300 µM CQ” value (0 µM PPQ) was 20.89 pmol oocyte-1 h-1 and 20.25 pmol oocyte-1 h-1 and 8.92 pmol oocyte-1 h-1 and 15.94 pmol oocyte-1 h-1 and 19.02 pmol oocyte-1 h-1, the “PfCRTDd2-mediated CQ transport 300 µM CQ” value (50 µM PPQ) was 15.04 pmol oocyte-1 h-1 and 14.02 pmol oocyte-1 h-1 and 15.34 pmol oocyte-1 h-1 and the “PfCRTDd2-mediated CQ transport 300 µM CQ” value (125 µM PPQ) was 15.92 pmol oocyte-1 h-1 and 14.01 pmol oocyte-1 h-1 and 11.66 pmol oocyte-1 h-1. For the same compound, the “PfCRTDd2-mediated CQ transport 300 µM CQ” value (200 µM PPQ) was 11.11 pmol oocyte-1 h-1 and 12.97 pmol oocyte-1 h-1 and 12.36 pmol oocyte-1 h-1, the “PfCRTDd2-mediated CQ transport 300 µM CQ” value (350 µM PPQ) was 11.84 pmol oocyte-1 h-1 and 11.95 pmol oocyte-1 h-1 and 8.89 pmol oocyte-1 h-1 and the “PfCRTDd2-mediated CQ transport 300 µM CQ” value (500 µM PPQ) was 11.31 pmol oocyte-1 h-1 and 9.89 pmol oocyte-1 h-1 and 9.29 pmol oocyte-1 h-1. For the same compound, the “PfCRTDd2-mediated CQ transport 400 µM CQ” value (0 µM PPQ) was 20.79 pmol oocyte-1 h-1 and 22.58 pmol oocyte-1 h-1 and 19.58 pmol oocyte-1 h-1 and 16.43 pmol oocyte-1 h-1, the “PfCRTDd2-mediated CQ transport 400 µM CQ” value (50 µM PPQ) was 18.68 pmol oocyte-1 h-1 and 19.12 pmol oocyte-1 h-1 and 16.44 pmol oocyte-1 h-1 and the “PfCRTDd2-mediated CQ transport 400 µM CQ” value (125 µM PPQ) was 13.83 pmol oocyte-1 h-1 and 18.03 pmol oocyte-1 h-1 and 15.59 pmol oocyte-1 h-1. For the same compound, the “PfCRTDd2-mediated CQ transport 400 µM CQ” value (200 µM PPQ) was 14.22 pmol oocyte-1 h-1 and 13.47 pmol oocyte-1 h-1 and 13.35 pmol oocyte-1 h-1, the “PfCRTDd2-mediated CQ transport 400 µM CQ” value (350 µM PPQ) was 14.38 pmol oocyte-1 h-1 and 9.22 pmol oocyte-1 h-1 and the “PfCRTDd2-mediated CQ transport 400 µM CQ” value (500 µM PPQ) was 12.77 pmol oocyte-1 h-1 and 10.16 pmol oocyte-1 h-1 and 8.34 pmol oocyte-1 h-1.
